Measured values reported in the supplement of paper PMC10331698.
± gives the standard deviation of the averaged measurements.

How the values were obtained:
Test in all cases: level (log10 ratio to DMSO vehicle control); higher = higher biomarker level / cell amount than vehicle control
Conditions in all cases: in DMSO
[1] = compound: C=CC(=O)OCC(F)(F)C(F)(F)C(F)(F)C(F)(F)C(F)(F)C(F)(F)C(F)(F)F [1H,1H-Perfluorooctyl acrylate]
Procedure: (§1)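 BioMAP Diversity Plus panel of 12 human primary cell co-culture systems (3C, 4H, LPS, SAg, BT, BF4T, BE3C, CASM3C, HDF3CGF, KF3CT, MyoF, Mphg). Compounds were added 1 h before stimulation and left for 24 h (MyoF 48 h; BT 72 h for soluble read-outs or 6 d for IgG). Biomarkers were read by ELISA, cytotoxicity by SRB, PBMC viability and proliferation by Alamar Blue. Each well value was divided by the mean of 8 DMSO control wells on the same plate and log10 transformed; duplicate blinded samples were tested at 4 concentrations.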

[2] = compound: COC(=O)CCC(F)(F)C(F)(F)C(F)(F)C(F)(F)F [Methyl 2H,2H,3H,3H-perfluoroheptanoate]
Procedure: as §1

[3] = compound: FC(F)(F)C(F)(C(F)(F)F)C(F)(F)C(F)(F)CC1CO1 [3-(Perfluoro-3-methylbutyl)-1,2-propenoxide]
Procedure: as §1

Heptafluorobutyramide = compound: NC(=O)C(F)(F)C(F)(F)C(F)(F)F [Heptafluorobutyramide]
Procedure: as §1

Pentafluoropropionamide = compound: NC(=O)C(F)(F)C(F)(F)F [Pentafluoropropionamide]
Procedure: as §1

[4] = compound: O=C(O)C(F)(F)C(F)(F)C(F)(F)OC(F)(C(F)(F)F)C(F)(F)F [Perfluoro-4-isopropoxybutanoic acid]
Procedure: as §1

[5] = compound: OCCC(F)(F)C(F)(F)C(F)(F)C(F)(F)C(F)(F)C(F)(F)F [6:2 Fluorotelomer alcohol]
Procedure: as §1

Test System | level (log10) ([1]; 6700 nM) | level (log10) ([1]; 20000 nM) | level (log10) ([1]; 60000 nM) | level (log10) ([2]; 6700 nM) | level (log10) ([2]; 20000 nM) | level (log10) ([2]; 60000 nM) | level (log10) ([3]; 6700 nM) | level (log10) ([3]; 20000 nM) | level (log10) (Heptafluorobutyramide; 6700 nM) | level (log10) (Heptafluorobutyramide; 20000 nM) | level (log10) (Heptafluorobutyramide; 60000 nM) | level (log10) (Pentafluoropropionamide; 6700 nM) | level (log10) (Pentafluoropropionamide; 20000 nM) | level (log10) (Pentafluoropropionamide; 60000 nM) | level (log10) ([4]; 6700 nM) | level (log10) ([4]; 20000 nM) | level (log10) ([4]; 60000 nM) | level (log10) ([5]; 6700 nM) | level (log10) ([5]; 20000 nM)
MyoF:TIMP-1 | 0.0075 ± 0.012 | 0.037 ± 0.0014 | 0.0405 ± 0.005 | -0.0585 ± 0.047 | -0.02 ± 0.035 | 0.01 ± 0.014 | -0.0165 ± 0.022 | -0.047 ± 0.052 | -0.0285 ± 0.054 | -0.0325 ± 0.05 | -0.0435 ± 0.067 | -0.053 ± 0.027 | -0.048 ± 0.034 | -0.0225 ± 0.064 | 0.0135 ± 0.059 | 0.0705 ± 0.083 | 0.0855 ± 0.1 | 0.002 ± 0.04 | 0.0085 ± 0.047
MyoF:alpha-SM Actin | 0.016 ± 0.0085 | -0.0215 ± 0.032 | -0.0185 ± 0.039 | -0.009 ± 0.024 | -0.007 ± 0.02 | -0.0035 ± 0.04 | -0.009 ± 0.028 | -0.0295 ± 0.0064 | 0.0105 ± 0.033 | -0.004 ± 0.033 | 0.0015 ± 0.018 | -0.007 ± 0.02 | -0.0135 ± 0.019 | -0.0195 ± 0.018 | 0.0045 ± 0.023 | 0.008 ± 0.033 | 0.026 ± 0.052 | -0.001 ± 0.018 | 0.0095 ± 0.026
MyoF:bFGF | 0.003 | -0.0055 ± 0.0021 | 0.012 ± 0.024 | -0.0125 ± 0.012 | -0.008 ± 0.013 | -0.0075 ± 0.019 | 0.006 ± 0.0099 | -0.001 ± 0.0042 | -0.0155 ± 0.021 | 0.004 ± 0.016 | -0.001 ± 0.013 | -0.002 ± 0.0042 | 0.0105 ± 0.012 | -0.0005 ± 0.029 | -0.014 ± 0.016 | -0.0225 ± 0.026 | -0.004 ± 0.027 | 0.0015 ± 0.005 | -0.0085 ± 0.0035
